In US3936439A, “2,6-Diaminonebularine derivatives” (Takeda Chemical Industries, Ltd., priority 1972, dated 1976):
Where two headings read alike, the source gives them in different places.

Assays:
[1] = system: rat platelets; test: Test for the action to inhibit the aggregation of rat platelets caused by adenosine-5'-diphosphate (method of Born and Cross); type: cell-based; conditions: read-out: Inhibitory action (%)
From the text: Test for the action to inhibit the aggregation of rat platelets caused by adenosine-5'-diphosphate

[2] = system: coronary artery; test: Test for coronary dilating action (intracoronary administration, coronary blood flow in anaesthetized dogs); type: in vivo; conditions: 10 μg./dog directly into the coronary artery, potency of adenosine taken as unity
Method: Each of dogs weighing 7 to 17 kilograms was anaesthetized with pentobarbital sodium salt (30 mg./kg., intravenously) and under supportive respiration, a left thoractomy was performed at the fifth interspace.
The heart of each animal was exposed and perfused with the blood guided from the animal's own left carotid artery to the left coronary artery circumflex through a polyethylene catheter. The coronary blood flow was measured with an electromagnetic flowmeter interposed in the external phase of the circuitry.
Each of the test compounds was administered directly into the coronary artery through the polyethylene catheter at a dose of 10 μg./dog. The potency of each compound was expressed with the potency of adenosine being taken as unity.

[3] = rat platelet-rich plasma, ADP-induced aggregation, concentration 15 μg/ml
[4] = rat platelet-rich plasma, ADP-induced aggregation, concentration 74 μg/ml
[5] = rat platelet-rich plasma, ADP-induced aggregation, concentration 370 μg/ml

Structure (SMILES)	inhibition at 15 µg/mL [1, 3] [%]	inhibition at 74 µg/mL [1, 4] [%]	inhibition at 370 µg/mL [1, 5] [%]	Maximum coronary flow [2]	inhibition at 15 µg/mL ([1]; Rattus norvegicus, Platelet) [%]	inhibition at 74 µg/mL ([1]; Rattus norvegicus, Platelet) [%]	inhibition at 370 µg/mL ([1]; Rattus norvegicus, Platelet) [%]
CCNc1nc(N)c2ncn([C@@H]3O[C@H](CO)[C@@H](O)[C@H]3O)c2n1 [N^2 -Ethyl-2,6-diaminonebularine, N^2-ethyl-2,6-diaminonebularine]	-11	-21	-40	0.91			
Nc1ncnc2c1ncn2[C@@H]1O[C@H](CO)[C@@H](O)[C@H]1O [Adenosine]				1.00	0	0	0
Nc1nc(N)c2ncn([C@@H]3O[C@H](CO)[C@@H](O)[C@H]3O)c2n1 [2,6-Diaminonebularine, 2,6-diaminonebularine]	0	0	0	0.50			
Nc1nc(NC2CCCCC2)nc2c1ncn2[C@@H]1O[C@H](CO)[C@@H](O)[C@H]1O [N^2 -Cyclohexyl-2,6-diaminonebularine, N^2-cyclohexyl-2,6-diaminonebularine]	-32	-60	-95	2.20			
COc1ccc(Nc2nc(N)c3ncn([C@@H]4O[C@H](CO)[C@@H](O)[C@H]4O)c3n2)cc1 [N^2-(p-methoxyphenyl)-2,6-diaminonebularine]				2.37			
Nc1nc(Nc2ccccc2)nc2c1ncn2[C@@H]1O[C@H](CO)[C@@H](O)[C@H]1O [N^2 -Phenyl-2,6-diaminonebularine, N^2-phenyl-2,6-diaminonebularine]	-38	-52	-85	6.75			
